From patent US11827637B2, “Azaindole derivatives and their use as ERK kinase inhibitors” (AGV Discovery, priority 2022, dated 2023)

Assays:
[1] = tested on: A375 cells (malignant melanoma); assay: Cell line proliferation assay (MTT, A375); type: cell-based; settings: Homo sapiens, A-375, 72 hours
Method: A cell line assay was used to determine the capacity of compounds to inhibit cell proliferation. A375 cells (malignant melanoma) were grown to near 80% confluence and seeded at 3000 cells per 100 μl per well in DMEM with 10% FBS in 96-well flat bottom plates. Cells were incubated for 24 hours at 37° C. under 5% CO2. 100 μl compound solutions were added to cells and incubated for 72 hours at 37° C. Total volume of media was 200 μl per well. Compounds were screened in 0.15% DMSO (final) using 10 titration points in duplicate. Negative control wells consisted of vehicle only (0.15% DMSO in 10% FBS DMEM). After 72 hours of compound treatment, SDS 1% (final) was added to positive control wells for 15 minutes at 37° C. Then, medium was discarded and replaced by 100 μl per well of a MTT solution (3-[4.5-dimethylthiazol-2-yl]-2.5-diphenyltetrazolium bromide) (Sigma, Cat #M5655) at 0.5 mg/ml in 10% FBS DMEM. Cells were incubated for 4 hours at 37° C. MTT reaction was stopped and homogenized by the addition of 100 μl per well of SDS 10% 0.01M HCl. After 16 hours at 37° C., absorbance was measured at 570 nm in a Bio-Tek plate reader (PowerWave HT). […] Analysis was performed using GraphPad Prism software.

ERK2 (MAPK1) = molecular target: T1, ERK2 (MAPK1) (Homo sapiens, UniProt P28482); assay: ERK2 (MAPK1) enzymatic assay (Z′-Lyte); type: biochemical
T1 construct: purchased Life technologies
T1 sequence (P28482 whole entry): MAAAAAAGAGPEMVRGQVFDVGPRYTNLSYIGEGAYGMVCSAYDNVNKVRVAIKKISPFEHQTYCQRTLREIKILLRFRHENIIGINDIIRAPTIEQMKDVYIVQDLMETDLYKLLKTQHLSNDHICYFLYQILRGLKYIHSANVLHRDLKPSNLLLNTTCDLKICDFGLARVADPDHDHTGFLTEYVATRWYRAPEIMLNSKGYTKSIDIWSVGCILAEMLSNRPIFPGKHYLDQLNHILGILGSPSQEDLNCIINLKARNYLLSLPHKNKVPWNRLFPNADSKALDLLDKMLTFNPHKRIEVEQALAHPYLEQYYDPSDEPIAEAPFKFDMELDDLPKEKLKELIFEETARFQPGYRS
Method: To assess the capacity of compounds to inhibit ERK2 enzymatic activity, Z′-Lyte biochemical assay from Life technologies was used according to manufacturer's instructions. Briefly, black 384-well plates containing 100 nl of 100× compound solution in 100% DMSO, 2.4 μl kinase buffer, 5 μl 2×MAPK1 (ERK2)/Ser/Thr 03 mixture and 2.5 μl 4×ATP solution were used. Plates were shaken for 30 seconds and incubated for 60 minutes at room temperature. Then, 5 μl of a 1:1024 dilution of Development Reagent A was added. Plates were shaken for 30 seconds and incubated for 60 minutes at room temperature. A plate reader was used to read fluorescence. […] Kinase buffer consisted of 50 mM HEPES pH 7.5, 0.01% BRIJ-35, 10 mM MgCl2, 1 mM EGTA.

58 kinases = assay: Kinase panel (Z′-Lyte, Adapta/Lanthascreen), 58 kinases; type: biochemical; settings: for Kinase panel @500 nM hits > 50%: number of the 58 kinases inhibited more than 50% at 500 nM; for Kinase panel @500 nM hits > 80%: number of the 58 kinases inhibited more than 80% at 500 nM
Method: To assess the kinase selectivity of compounds, Z′-Lyte biochemical assay, and Adapta/Lanthascreen binding assays from Life technologies were used according to manufacturer's instructions. Pourcentages of inhibition at 500 nM of test compounds were performed towards 58 kinases: ABL1, ACVR1B (ALK4), AKT2 (PKB beta), AMPK (A1/132/G3), AURKA (Aurora A), AXL, BRAF, BTK, CAMK2B (CaMKII beta), CDK2/cyclin A, CHEK1 (CHK1), CLK1, CSNK1A1 (CK1 alpha 1), CSNK2A1 (CK2 alpha 1), DAPK3 (ZIPK), DYRK1A, EGFR (ErbB1), EPHB3, ERBB2 (HER2), FGFR2, FLT3, FRAP1 (mTOR), GSK3B (GSK3 beta), IGF1R, IKBKB (IKK beta), INSR, IRAK4, JAK2, KDR (VEGFR2), KIT, LCK, MAP2K1 (MEK1), MAPK10 (JNK3), MAPK11 (p38 beta), MAPKAPK2, MARK2, MET (cMet), NEK2, NTRK1 (TRKA), PAK2 (PAK65), PDGFRB (PDGFR beta), PDK1 Direct, PHKG2, PIK3CA/PIK3R1 (p110 alpha/p85 alpha), PIM1, PLK1, PRKACA (PKA), PRKCA (PKC alpha), PTK2 (FAK), RET, ROCK1, RPS6KA1 (RSK1), RPS6KB1 (p70S6K), SRC, STK3 (MST2), SYK, TEK (Tie2), TYRO3 (RSE).

## CN(CC(F)F)C[C@H](c1cccc(Cl)c1)n1ccc(-c2c[nH]c3ncc(N4CCOCC4)cc23)cc1=O [Compound no11 (S), (S)-1-(1-(3-chlorophenyl)-2-((2,2-difluoroethyl)(methyl)amino)ethyl)-4-(5-morpholino-1H-pyrrolo[2,3-b]pyridin-3-yl)pyridin-2(1H)-one]
[1]
  IC50: 229 nM

## CN(C)C[C@H](c1cccc(C#N)c1)n1ccc(-c2c[nH]c3ncc(N4CCOCC4)cc23)cc1=O [Compound no25 (S), (S)-3-(2-(dimethylamino)-1-(4-(5-morpholino-1H-pyrrolo[2,3-b]pyridin-3-yl)-2-oxopyridin-1(2H)-yl)ethyl)benzonitrile]
[1]
  IC50: 156 nM

## CN(C)C[C@H](c1cc(F)cc(F)c1)n1ccc(-c2c[nH]c3ncc(N4CCOCC4)cc23)cc1=O [Compound no18 (S), (S)-1-(1-(3,5-difluorophenyl)-2-(dimethylamino)ethyl)-4-(5-morpholino-1H-pyrrolo[2,3-b]pyridin-3-yl)pyridin-2(1H)-one]
[1]
  IC50: 371 nM

## CN(C)C[C@H](c1cccc(Cl)c1)n1cc(F)c(-c2c[nH]c3ncc(N4CCOCC4)cc23)cc1=O [Compound no19 (S), (S)-1-(1-(3-chlorophenyl)-2-(dimethylamino)ethyl)-5-fluoro-4-(5-morpholino-1H-pyrrolo[2,3-b]pyridin-3-yl)pyridin-2(1H)-one]
[1]
  IC50: 303 nM

## CN(C)CC(c1cc(F)cc(Cl)c1)n1ccc(-c2c[nH]c3ncc(N4CCOCC4)cc23)cc1=O (racemic) [Compound no9 (racemate), 1-(1-(3-Chloro-5-fluorophenyl)-2-(dimethylamino)ethyl)-4-(5-morpholino-1H-pyrrolo[2,3-b]pyridin-3-yl)pyridin-2(1H)-one]
ERK2 (MAPK1)
  IC50: 7.7 nM

## CN(C)C[C@H](c1ccc(F)c(F)c1)n1ccc(-c2c[nH]c3ncc(N4CCOCC4)cc23)cc1=O [Compound no17 (S), (S)-1-(1-(3,4-difluorophenyl)-2-(dimethylamino)ethyl)-4-(5-morpholino-1H-pyrrolo[2,3-b]pyridin-3-yl)pyridin-2(1H)-one]
[1]
  IC50: 103 nM
ERK2 (MAPK1)
  IC50: 2.7 nM

## O=c1cc(-c2c[nH]c3ncc(N4CCOCC4)cc23)ccn1[C@H](CN1CC1)c1cccc(Cl)c1 [Compound no24 (S), (S)-1-(2-(aziridin-1-yl)-1-(3-chlorophenyl)ethyl)-4-(5-morpholino-1H-pyrrolo[2,3-b]pyridin-3-yl)pyridin-2(1H)-one]
[1]
  IC50: 96 nM

## NC[C@H](c1cccc(Cl)c1)n1ccc(-c2c[nH]c3ncc(N4CCOCC4)cc23)cc1=O [Comparative compound A (S), (S)-1-(2-amino-1-(3-chlorophenyl)ethyl)-4-(5-morpholino-1H-pyrrolo[2,3-b]pyridin-3-yl)pyridin-2(1H)-one, reference compound]
58 kinases
  Kinase panel @500 nM hits > 50%: 26/58
  Kinase panel @500 nM hits > 80%: 15/58

## CN(C)C[C@H](c1cccc(I)c1)n1ccc(-c2c[nH]c3ncc(N4CCOCC4)cc23)cc1=O [Compound no6 (S), (S)-1-(2-(dimethylamino)-1-(3-iodophenyl)ethyl)-4-(5-morpholino-1H-pyrrolo[2,3-b]pyridin-3-yl)pyridin-2(1H)-one]
[1]
  IC50: 42 nM
ERK2 (MAPK1)
  IC50: 2.4 nM

## CCN(C)C[C@H](c1cccc(Cl)c1)n1ccc(-c2c[nH]c3ncc(N4CCOCC4)cc23)cc1=O [Compound no15 (S), (S)-1-(1-(3-chlorophenyl)-2-(ethyl(methyl)amino)ethyl)-4-(5-morpholino-1H-pyrrolo[2,3-b]pyridin-3-yl)pyridin-2(1H)-one]
[1]
  IC50: 51 nM
ERK2 (MAPK1)
  IC50: 3.5 nM

## CN(C)C[C@H](c1cccc(C(F)(F)F)c1)n1ccc(-c2c[nH]c3ncc(N4CCOCC4)cc23)cc1=O [Compound no26 (S), (S)-1-(2-(dimethylamino)-1-(3-(trifluoromethyl)phenyl)ethyl)-4-(5-morpholino-1H-pyrrolo[2,3-b]pyridin-3-yl)pyridin-2(1H)-one]
[1]
  IC50: 15 nM

## CN(C)C[C@H](c1cc(F)cc(Cl)c1)n1ccc(-c2c[nH]c3ncc(N4CCOCC4)cc23)cc1=O [Compound no9 (S), (S)-1-(1-(3-chloro-5-fluorophenyl)-2-(dimethylamino)ethyl)-4-(5-morpholino-1H-pyrrolo[2,3-b]pyridin-3-yl)pyridin-2(1H)-one]
[1]
  IC50: 188 nM

## Cc1cc(-c2c[nH]c3ncc(N4CCOCC4)cc23)cc(=O)n1[C@H](CN(C)C)c1cccc(Cl)c1 [Compound no20 (S), (S)-1-(1-(3-chlorophenyl)-2-(dimethylamino)ethyl)-6-methyl-4-(5-morpholino-1H-pyrrolo[2,3-b]pyridin-3-yl)pyridin-2(1H)-one]
[1]
  IC50: 825 nM

## CN(C[C@H](c1cccc(Cl)c1)n1ccc(-c2c[nH]c3ncc(N4CCOCC4)cc23)cc1=O)C1CC1 [Compound no14 (S), (S)-1-(1-(3-chlorophenyl)-2-(cyclopropyl(methyl)amino)ethyl)-4-(5-morpholino-1H-pyrrolo[2,3-b]pyridin-3-yl)pyridin-2(1H)-one]
[1]
  IC50: 420 nM

## COCCN(C)C[C@H](c1cccc(Cl)c1)n1ccc(-c2c[nH]c3ncc(N4CCOCC4)cc23)cc1=O [Compound no13 (S), (S)-1-(1-(3-chlorophenyl)-2-((2-methoxyethyl)(methyl)amino)ethyl)-4-(5-morpholino-1H-pyrrolo[2,3-b]pyridin-3-yl)pyridin-2(1H)-one]
[1]
  IC50: 262 nM

## CNC[C@H](c1ccc(Cl)c(Cl)c1)n1ccc(-c2c[nH]c3ncc(N4CCOCC4)cc23)cc1=O [Comparative compound B (S), (S)-1-(1-(3,4-dichlorophenyl)-2-(methylamino)ethyl)-4-(5-morpholino-1H-pyrrolo[2,3-b]pyridin-3-yl)pyridin-2(1H)-one, reference compound]
58 kinases
  Kinase panel @500 nM hits > 50%: 20/58
  Kinase panel @500 nM hits > 80%: 10/58

## CN(C)C[C@H](c1cc(F)cc(I)c1)n1ccc(-c2c[nH]c3ncc(N4CCOCC4)cc23)cc1=O [Compound no10 (S), (S)-1-(2-(dimethylamino)-1-(3-fluoro-5-iodophenyl)ethyl)-4-(5-morpholino-1H-pyrrolo[2,3-b]pyridin-3-yl)pyridin-2(1H)-one]
[1]
  IC50: 116 nM

## CN(C)C[C@H](c1cccc(Cl)c1)n1ccc(-c2c[nH]c3ncc(N4CCOC(C(F)(F)F)C4)cc23)cc1=O (stereo partly drawn) [Compound no21 (S), 1-((S)-1-(3-chlorophenyl)-2-(dimethylamino)ethyl)-4-(5-(2-(trifluoromethyl)morpholino)-1H-pyrrolo[2,3-b]pyridin-3-yl)pyridin-2(1H)-one]
[1]
  IC50: 199 nM

## CN(CC1CC1)C[C@H](c1cccc(Cl)c1)n1ccc(-c2c[nH]c3ncc(N4CCOCC4)cc23)cc1=O [Compound no16 (S), (S)-1-(1-(3-chlorophenyl)-2-((cyclopropylmethyl)(methyl)amino)ethyl)-4-(5-morpholino-1H-pyrrolo[2,3-b]pyridin-3-yl)pyridin-2(1H)-one]
[1]
  IC50: 162 nM

## CN(CC#N)C[C@H](c1cccc(Cl)c1)n1ccc(-c2c[nH]c3ncc(N4CCOCC4)cc23)cc1=O [Compound no12 (S), (S)-2-((2-(3-chlorophenyl)-2-(4-(5-morpholino-1H-pyrrolo[2,3-b]pyridin-3-yl)-2-oxopyridin-1(2H)-yl)ethyl)(methyl)amino)acetonitrile]
[1]
  IC50: 7 nM

## CN(C)CC(c1cc(F)cc(I)c1)n1ccc(-c2c[nH]c3ncc(N4CCOCC4)cc23)cc1=O (racemic) [Compound no10 (racemate), 1-(2-(dimethylamino)-1-(3-fluoro-5-iodophenyl)ethyl)-4-(5-morpholino-1H-pyrrolo[2,3-b]pyridin-3-yl)pyridin-2(1H)-one]
ERK2 (MAPK1)
  IC50: 5.1 nM
